Measurements reported in patent publication US7820196B2, “Physiologically active agents containing vicinal dithioglycols and use thereof in various branches of economy” (priority 1999, dated 2010).
Where “and” joins values, the source holds several entries; their conditions need not be identical. Equal entries are not always repeated.

Legend:
broiler chickens = test: Example 6: effect of unithiol on accumulation of heavy metal compounds in tissues of poultry; type: in vivo
Experimental: An experiment was conducted, on the inventors' initiative, on the experimental base of the All-Russia research and technological institute for aviculture (VNITIP) during which a study was given to the following tasks: • determination of an effect produced by unithiol (DMPS) on the productivity and meat quality of broiler chickens; • effect produced by unithiol on the accumulation of heavy metal compounds (mercury, cadmium, lead) in various tissues of poultry.
The experiment was carried out in a vivarium on broiler chickens of one cross. Poultry was grown in cell batteries from one day to six-week age. The operating parameters and feeding level met the recommendation VNITIP 1999. The experiment was conducted according to the diagram on Table 1.
The poultry population: 1 and 2 groups, 35 heads each; 3,4,5 groups—6 heads each.
13. Contained heavy metal residual compounds (mercury, cadmium, lead) in mixed feed for the broilers.
14. Evaluation of the level of meat contamination and internal organs (liver and kidneys) of the broilers with heavy metal salts.

broilers = test: Example 5: broilers fed basic ration plus Unithiol; type: in vivo
Experimental: A full-ration mixed-fodder was checked for the absence of pathogens and used for feeding broilers. Thirty 15 days broilers were divided into one control and 4 experimental groups having 6 chickens each (3 male and 3 female chickens). Poultry were kept in a four-deck pen. The conditions of feeding such as the basic ration (BR) and the addition of Unithiol according to the protocol were as follows:
Experimental group 1: BR+1.3 mg of “Unithiol” per 1 kg of the body weight;
Experimental group 2: BR+1.7 mg of “Unithiol” per 1 kg of the body weight;
Experimental group 3: BR+2.1 mg of “Unithiol” per 1 kg of the body weight;
Experimental group 4: BR+2.5 mg of “Unithiol” per 1 kg of the body weight.
Feeding was performed in accordance with experimental protocol; broilers received water ad libitum; the experiment was carried out for 42 days.

[1] = test system: participants (males and females) taking 1 l dark beer every evening; test: Example 7: hangover and biochemical indices in participants taking dark beer with Unithiol or placebo; type: in vivo, human; conditions: for MDA (urine) / ALT (blood) / AST (blood) / SH-gr. (blood) / Triglycerides (blood) / Urate (blood) / Vit. A (blood) / Vit. E (blood): one value per participant
Excerpt: The tests were held upon the offer's proposal. The Moscow scientific and practical Center for the drug prophylactic of the Moscow health Administration was taken as the base for it.
The experiment was schemed as follows. The participants were taken from males and females of different age groups and different alcohol intake habits.
The control group remained as an intact one.
The experimental group—1—took in 1 l. of a dark beer of the “Klinskoie” type every evening from the X^th day till the X+13th day. That group took in the placebo every morning from the X+1th day till X+7th day, and every morning it took in from the X+8th day till X+14th day the solution of 250 mg of Unithiol in 100 g of drinking water.
The experimental group—2—took in 1 l. of a dark beer of the “Klinskoie” type every evening from the X^th day till the X+13th day. That group took in the solution of 250 mg of Unithiol in 100 g of drinking water every morning from the X+1th day till X+7th day, and every morning it took in the placebo from the X+8th day till X+14th day.
The measurements of the biochemical indices were taken in the mornings in every group, and in the control groups—after 30 minutes of placebo or Unithiol intake.
The following indices of the level of the per oxidation of lipids and the condition of the liver and the brain tissues were measured: • MDA—malondialdehyde • Triglycerides • Endogenous antioxidants: • Vit. A—vitamin A • Vit. E—vitamin E • Urate—serum urate • SH-gr.—SH-groups • Aminotransferase: • ALT—lanine aminotransferase • AST—aspartate aminotransferase

[2] = Group 2: BR + 17 mg unithiol/kg feed days 15-42
[3] = Group 4: BR + heavy metals + 17 mg unithiol/kg feed, both days 15-42
[4] = Group 5: BR + heavy metals days 15-35, 34 mg unithiol/kg feed days 36-42
[5] = about 1.7 mg Unithiol per 1 kg of body weight in ration
[6] = day X+7, Experimental group 2: beer every evening, 250 mg Unithiol mornings X+1 to X+7
[7] = day X+14, Experimental group 1: beer every evening, 250 mg Unithiol mornings X+8 to X+14

O=S(=O)([O-])CC(S)CS.[Na+] (centres unmarked) [Unithiol, Sodium 2,3-Dimercaptopropane sulfonate]
Heavy metal content: cadmium, kidneys (broiler chickens; [2]): 0.078 mg/kg
Heavy metal content: cadmium, liver (broiler chickens; [2]): 0.049 mg/kg
Heavy metal content: lead, kidneys (broiler chickens; [2]): 0.67 mg/kg
Heavy metal content: lead, liver (broiler chickens; [2]): 0.40 mg/kg
Heavy metal content: mercury, kidneys (broiler chickens; [2]): 0.055 mg/kg
Heavy metal content: mercury, liver (broiler chickens; [2]): 0.039 mg/kg
Heavy metal content: zinc, kidneys (broiler chickens; [2]): 95.3 mg/kg
Heavy metal content: zinc, liver (broiler chickens; [2]): 104.1 mg/kg
Heavy metal content: zinc, muscular tissue (broiler chickens; [2]): 50.2 mg/kg
Heavy metal content: cadmium, kidneys (broiler chickens; [3]): 3.76 mg/kg
Heavy metal content: cadmium, liver (broiler chickens; [3]): 2.98 mg/kg
Heavy metal content: cadmium, muscular tissue (broiler chickens; [3]): 0.37 mg/kg
Heavy metal content: lead, kidneys (broiler chickens; [3]): 8.50 mg/kg
Heavy metal content: lead, liver (broiler chickens; [3]): 4.80 mg/kg
Heavy metal content: lead, muscular tissue (broiler chickens; [3]): 0.83 mg/kg
Heavy metal content: mercury, kidneys (broiler chickens; [3]): 2.00 mg/kg
Heavy metal content: mercury, liver (broiler chickens; [3]): 2.18 mg/kg
Heavy metal content: mercury, muscular tissue (broiler chickens; [3]): 0.375 mg/kg
Heavy metal content: zinc, kidneys (broiler chickens; [3]): 103.1 mg/kg
Heavy metal content: zinc, liver (broiler chickens; [3]): 107.2 mg/kg
Heavy metal content: zinc, muscular tissue (broiler chickens; [3]): 50.4 mg/kg
Heavy metal content: cadmium, kidneys (broiler chickens; [4]): 2.97 mg/kg
Heavy metal content: cadmium, liver (broiler chickens; [4]): 2.30 mg/kg
Heavy metal content: cadmium, muscular tissue (broiler chickens; [4]): 0.24 mg/kg
Heavy metal content: lead, kidneys (broiler chickens; [4]): 7.00 mg/kg
Heavy metal content: lead, liver (broiler chickens; [4]): 3.40 mg/kg
Heavy metal content: lead, muscular tissue (broiler chickens; [4]): 0.54 mg/kg
Heavy metal content: mercury, kidneys (broiler chickens; [4]): 1.05 mg/kg
Heavy metal content: mercury, liver (broiler chickens; [4]): 1.12 mg/kg
Heavy metal content: mercury, muscular tissue (broiler chickens; [4]): 0.328 mg/kg
Heavy metal content: zinc, kidneys (broiler chickens; [4]): 98.2 mg/kg
Heavy metal content: zinc, liver (broiler chickens; [4]): 104.3 mg/kg
Heavy metal content: zinc, muscular tissue (broiler chickens; [4]): 50.3 mg/kg
heavy metal salt content in the depositing organs and meat (broiler chickens; use of unithiol): considerably reduce a heavy metal salt content
feathering condition (broilers; Unithiol in ration): Feathering condition improvement
fodder consumption (broilers; Unithiol in ration): increased fodder consumption
average weight gain (broilers; [5]): up to 35.8 g per day
gain rate, % from that in the control group (broilers; [5]): 145.9%
growth stimulating effect (broilers; about 1.7 mg per 1 kg of body weight in ration, beginning from the 15th day): growth stimulating effect
level of cadmium, zinc, lead and copper in meat and liver, lower than control group (broilers; experimental groups, 1.3-2.5 mg Unithiol per kg body weight): about 1.5 times
time to full hangover alleviating after intake ([1]; 250 mg Unithiol in 100 g drinking water in the morning after 1 l dark beer in the evening): 5 to 10 min
toxic activity of ethanol and products of its incomplete oxidation (carbonyl compounds) to liver and brain tissue ([1]; Unithiol intake during alcohol intake): reduce almost to the whole extent
MDA (urine) ([1]; day X+2, Experimental group 2: 1 l dark beer every evening, 250 mg Unithiol mornings X+1 to X+7): 0.62 nM/ml and 0.45 nM/ml (2×) and 0.47 nM/ml and 0.43 nM/ml and 0.99 nM/ml and 0.67 nM/ml
MDA (urine) ([1]; day X+4, Experimental group 2: beer every evening, 250 mg Unithiol mornings X+1 to X+7): 0.60 nM/ml and 0.58 nM/ml (2×) and 0.42 nM/ml and 0.51 nM/ml and 0.88 nM/ml and 0.53 nM/ml
ALT (blood) [1, 6]: 61 nmol (sec. 1) and 50 nmol (sec. 1) (2×) and 37 nmol (sec. 1) and 46 nmol (sec. 1) and 190 nmol (sec. 1) and 39 nmol (sec. 1)
AST (blood) [1, 6]: 48 nmol (sec. 1) and 46 nmol (sec. 1) and 31 nmol (sec. 1) and 41 nmol (sec. 1) and 37 nmol (sec. 1) and 172 nmol (sec. 1) and 30 nmol (sec. 1)
MDA (urine) [1, 6]: 0.55 nM/ml and 0.43 nM/ml and 0.49 nM/ml and 0.42 nM/ml and 0.38 nM/ml and 0.89 nM/ml and 0.56 nM/ml
SH-gr. (blood) [1, 6]: 378 MKM and 389 MKM (2×) and 383 MKM and 380 MKM and 197 MKM and 354 MKM
Triglycerides (blood) [1, 6]: 0.80 mmoi/l and 0.59 mmoi/l and 0.44 mmoi/l and 0.43 mmoi/l and 0.41 mmoi/l and 1.73 mmoi/l and 0.42 mmoi/l
Urate (blood) [1, 6]: 268 MKM and 267 MKM and 311 MKM and 295 MKM and 280 MKM and 208 MKM and 279 MKM
Vit. A (blood) [1, 6]: 1.9 µg/mL and 2.2 µg/mL and 2.8 µg/mL and 2.3 µg/mL and 2.7 µg/mL and 0.6 µg/mL and 1.6 µg/mL
Vit. E (blood) [1, 6]: 2.6 µg/mL and 3.3 µg/mL and 3.1 µg/mL and 3.8 µg/mL and 3.2 µg/mL and 1.0 µg/mL and 2.4 µg/mL
MDA (urine) ([1]; day X+9, Experimental group 1: 1 l dark beer every evening, placebo mornings X+1 to X+7, 250 mg Unithiol mornings X+8 to X+14): 0.7 nM/ml and 1.0 nM/ml and 0.90 nM/ml and 0.82 nM/ml
MDA (urine) ([1]; day X+11, Experimental group 1: beer every evening, 250 mg Unithiol mornings X+8 to X+14): 0.63 nM/ml and 0.80 nM/ml and 0.72 nM/ml and 0.54 nM/ml
ALT (blood) [1, 7]: 52 nmol (sec. 1) and 58 nmol (sec. 1) and 45 nmol (sec. 1) and 42 nmol (sec. 1)
AST (blood) [1, 7]: 41 nmol (sec. 1) and 50 nmol (sec. 1) and 40 nmol (sec. 1) and 35 nmol (sec. 1)
MDA (urine) [1, 7]: 0.69 nM/ml and 0.82 nM/ml and 0.64 nM/ml and 0.53 nM/ml
SH-gr. (blood) [1, 7]: 384 MKM and 375 MKM and 389 MKM and 392 MKM
Triglycerides (blood) [1, 7]: 0.65 mmoi/l and 0.59 mmoi/l and 0.71 mmoi/l and 0.64 mmoi/l
Urate (blood) [1, 7]: 265 MKM and 253 MKM and 285 MKM and 279 MKM
Vit. A (blood) [1, 7]: 1.4 mcg/ml (2×) and 1.2 mcg/ml and 2.1 mcg/ml
Vit. E (blood) [1, 7]: 2.8 µg/mL and 2.1 µg/mL and 2.2 µg/mL and 1.7 µg/mL
